Reference: BindingDB's records for doi:10.1021/cb300623a (University of Washington, 2013)

Columns and labels:
Assay in all cases: Fluorescence Assay
Conditions in all cases: pH 7.5; 25 °C
[1] = target: Serine/threonine-protein kinase PAK 5 (Homo sapiens, UniProt Q9P286)
Text: (§1) Fluorescence assay used for determination of catch and release efficiency.

[2] = target: Proto-oncogene tyrosine-protein kinase Src (Homo sapiens, UniProt P12931)
Text: as §1

[3] = target: Serine/threonine-protein kinase PAK 4 (Homo sapiens, UniProt O96013)
Chain of Serine/threonine-protein kinase PAK 4 (O96013 whole entry): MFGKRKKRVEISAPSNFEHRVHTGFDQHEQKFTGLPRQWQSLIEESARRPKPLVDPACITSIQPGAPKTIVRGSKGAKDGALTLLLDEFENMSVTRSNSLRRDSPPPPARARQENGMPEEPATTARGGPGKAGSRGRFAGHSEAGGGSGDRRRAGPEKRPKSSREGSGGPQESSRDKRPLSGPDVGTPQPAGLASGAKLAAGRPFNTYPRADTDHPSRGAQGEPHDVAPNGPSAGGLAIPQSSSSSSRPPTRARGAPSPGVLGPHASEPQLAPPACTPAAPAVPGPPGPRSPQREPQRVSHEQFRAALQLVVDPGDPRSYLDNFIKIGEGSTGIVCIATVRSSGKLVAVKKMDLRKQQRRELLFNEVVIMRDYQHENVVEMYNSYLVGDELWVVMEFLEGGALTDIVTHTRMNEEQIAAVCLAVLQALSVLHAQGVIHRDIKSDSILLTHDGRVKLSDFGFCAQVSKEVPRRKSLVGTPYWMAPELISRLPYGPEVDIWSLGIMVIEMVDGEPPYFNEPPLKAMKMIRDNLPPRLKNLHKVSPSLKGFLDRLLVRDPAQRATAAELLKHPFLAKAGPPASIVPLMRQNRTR
Text: as §1

[4] = target: T1, Mitogen-activated protein kinase kinase kinase 5 (Homo sapiens, UniProt Q99683)
T1 sequence (Q99683 whole entry): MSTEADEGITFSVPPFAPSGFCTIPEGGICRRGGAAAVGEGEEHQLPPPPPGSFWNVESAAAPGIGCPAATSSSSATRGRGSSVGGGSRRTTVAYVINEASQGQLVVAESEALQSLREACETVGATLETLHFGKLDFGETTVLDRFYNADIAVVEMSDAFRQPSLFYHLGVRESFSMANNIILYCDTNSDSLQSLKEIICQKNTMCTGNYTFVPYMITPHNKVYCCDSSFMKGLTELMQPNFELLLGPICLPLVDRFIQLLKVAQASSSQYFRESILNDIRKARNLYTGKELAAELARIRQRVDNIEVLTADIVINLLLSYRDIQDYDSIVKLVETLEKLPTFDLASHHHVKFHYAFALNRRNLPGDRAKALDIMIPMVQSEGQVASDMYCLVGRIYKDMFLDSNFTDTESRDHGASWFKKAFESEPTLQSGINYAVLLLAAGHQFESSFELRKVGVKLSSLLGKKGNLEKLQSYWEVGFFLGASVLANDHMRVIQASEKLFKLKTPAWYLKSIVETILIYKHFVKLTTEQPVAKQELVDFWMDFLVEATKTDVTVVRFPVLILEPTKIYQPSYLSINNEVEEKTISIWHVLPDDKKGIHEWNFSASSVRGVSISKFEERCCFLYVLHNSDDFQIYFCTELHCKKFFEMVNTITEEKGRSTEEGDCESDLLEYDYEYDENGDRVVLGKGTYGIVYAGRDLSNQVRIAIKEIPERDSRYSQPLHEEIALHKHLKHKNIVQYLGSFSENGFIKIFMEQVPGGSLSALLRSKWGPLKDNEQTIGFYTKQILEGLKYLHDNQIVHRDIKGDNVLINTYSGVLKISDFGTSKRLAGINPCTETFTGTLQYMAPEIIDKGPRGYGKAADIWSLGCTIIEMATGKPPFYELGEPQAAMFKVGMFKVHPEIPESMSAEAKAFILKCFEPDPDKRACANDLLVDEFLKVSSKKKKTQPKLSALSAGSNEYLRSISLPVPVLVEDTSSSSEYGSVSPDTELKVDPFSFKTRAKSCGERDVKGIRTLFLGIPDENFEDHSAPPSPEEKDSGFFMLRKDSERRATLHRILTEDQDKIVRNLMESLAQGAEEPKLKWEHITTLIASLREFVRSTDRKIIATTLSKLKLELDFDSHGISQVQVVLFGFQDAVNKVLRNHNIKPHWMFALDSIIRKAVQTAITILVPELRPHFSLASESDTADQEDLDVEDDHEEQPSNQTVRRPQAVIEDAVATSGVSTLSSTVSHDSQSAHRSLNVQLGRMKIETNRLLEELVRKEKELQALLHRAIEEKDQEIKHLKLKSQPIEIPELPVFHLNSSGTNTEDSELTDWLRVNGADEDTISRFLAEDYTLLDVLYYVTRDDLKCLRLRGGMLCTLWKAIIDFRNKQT
Text: as §1

[5] = target: Serine/threonine-protein kinase 10 (Homo sapiens, UniProt O94804)
Chain of Serine/threonine-protein kinase 10 (O94804 whole entry): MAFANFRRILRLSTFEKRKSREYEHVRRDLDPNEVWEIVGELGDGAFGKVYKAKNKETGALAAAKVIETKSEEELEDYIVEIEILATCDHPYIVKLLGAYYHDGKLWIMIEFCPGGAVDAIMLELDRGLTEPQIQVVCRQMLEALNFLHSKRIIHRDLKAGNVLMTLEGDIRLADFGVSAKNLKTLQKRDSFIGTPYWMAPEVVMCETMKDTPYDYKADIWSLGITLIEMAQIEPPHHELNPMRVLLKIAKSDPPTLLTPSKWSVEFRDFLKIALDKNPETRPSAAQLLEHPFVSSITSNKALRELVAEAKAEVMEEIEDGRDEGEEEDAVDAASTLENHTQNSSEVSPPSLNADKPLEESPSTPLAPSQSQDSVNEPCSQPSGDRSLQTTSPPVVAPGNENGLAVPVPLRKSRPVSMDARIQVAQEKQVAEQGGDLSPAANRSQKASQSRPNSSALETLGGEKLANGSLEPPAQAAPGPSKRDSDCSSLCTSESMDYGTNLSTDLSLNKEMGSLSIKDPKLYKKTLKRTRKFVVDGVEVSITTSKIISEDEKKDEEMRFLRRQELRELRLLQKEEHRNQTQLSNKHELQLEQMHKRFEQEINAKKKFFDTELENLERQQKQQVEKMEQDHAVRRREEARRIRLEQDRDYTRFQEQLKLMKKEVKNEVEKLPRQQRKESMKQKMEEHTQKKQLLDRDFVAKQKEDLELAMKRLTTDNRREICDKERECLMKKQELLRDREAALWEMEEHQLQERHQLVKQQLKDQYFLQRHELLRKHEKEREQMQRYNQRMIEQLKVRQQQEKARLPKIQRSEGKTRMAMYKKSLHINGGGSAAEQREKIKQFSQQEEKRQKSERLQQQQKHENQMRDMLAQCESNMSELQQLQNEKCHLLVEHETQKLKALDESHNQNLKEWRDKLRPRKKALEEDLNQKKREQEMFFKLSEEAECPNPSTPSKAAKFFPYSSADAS
Text: as §1

[6] = target: Tyrosine-protein kinase HCK (Homo sapiens, UniProt P08631)
Chain of Tyrosine-protein kinase HCK (P08631 whole entry): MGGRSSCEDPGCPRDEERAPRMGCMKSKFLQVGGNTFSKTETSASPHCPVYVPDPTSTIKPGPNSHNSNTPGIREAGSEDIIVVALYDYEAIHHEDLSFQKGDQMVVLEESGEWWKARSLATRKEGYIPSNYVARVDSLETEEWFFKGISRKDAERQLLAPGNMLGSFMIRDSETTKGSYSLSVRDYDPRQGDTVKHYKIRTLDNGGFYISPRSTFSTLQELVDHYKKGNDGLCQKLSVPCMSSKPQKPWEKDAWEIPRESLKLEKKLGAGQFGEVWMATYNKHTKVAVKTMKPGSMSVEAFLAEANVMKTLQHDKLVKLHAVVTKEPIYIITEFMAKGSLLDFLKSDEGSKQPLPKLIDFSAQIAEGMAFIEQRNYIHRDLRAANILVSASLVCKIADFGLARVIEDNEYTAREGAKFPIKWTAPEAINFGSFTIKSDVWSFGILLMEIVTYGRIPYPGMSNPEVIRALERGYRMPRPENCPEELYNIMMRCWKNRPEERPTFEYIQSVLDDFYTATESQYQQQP
Text: as §1

[7] = target: Tyrosine-protein kinase ABL1 (Homo sapiens, UniProt P00519)
Chain of Tyrosine-protein kinase ABL1 (P00519 whole entry): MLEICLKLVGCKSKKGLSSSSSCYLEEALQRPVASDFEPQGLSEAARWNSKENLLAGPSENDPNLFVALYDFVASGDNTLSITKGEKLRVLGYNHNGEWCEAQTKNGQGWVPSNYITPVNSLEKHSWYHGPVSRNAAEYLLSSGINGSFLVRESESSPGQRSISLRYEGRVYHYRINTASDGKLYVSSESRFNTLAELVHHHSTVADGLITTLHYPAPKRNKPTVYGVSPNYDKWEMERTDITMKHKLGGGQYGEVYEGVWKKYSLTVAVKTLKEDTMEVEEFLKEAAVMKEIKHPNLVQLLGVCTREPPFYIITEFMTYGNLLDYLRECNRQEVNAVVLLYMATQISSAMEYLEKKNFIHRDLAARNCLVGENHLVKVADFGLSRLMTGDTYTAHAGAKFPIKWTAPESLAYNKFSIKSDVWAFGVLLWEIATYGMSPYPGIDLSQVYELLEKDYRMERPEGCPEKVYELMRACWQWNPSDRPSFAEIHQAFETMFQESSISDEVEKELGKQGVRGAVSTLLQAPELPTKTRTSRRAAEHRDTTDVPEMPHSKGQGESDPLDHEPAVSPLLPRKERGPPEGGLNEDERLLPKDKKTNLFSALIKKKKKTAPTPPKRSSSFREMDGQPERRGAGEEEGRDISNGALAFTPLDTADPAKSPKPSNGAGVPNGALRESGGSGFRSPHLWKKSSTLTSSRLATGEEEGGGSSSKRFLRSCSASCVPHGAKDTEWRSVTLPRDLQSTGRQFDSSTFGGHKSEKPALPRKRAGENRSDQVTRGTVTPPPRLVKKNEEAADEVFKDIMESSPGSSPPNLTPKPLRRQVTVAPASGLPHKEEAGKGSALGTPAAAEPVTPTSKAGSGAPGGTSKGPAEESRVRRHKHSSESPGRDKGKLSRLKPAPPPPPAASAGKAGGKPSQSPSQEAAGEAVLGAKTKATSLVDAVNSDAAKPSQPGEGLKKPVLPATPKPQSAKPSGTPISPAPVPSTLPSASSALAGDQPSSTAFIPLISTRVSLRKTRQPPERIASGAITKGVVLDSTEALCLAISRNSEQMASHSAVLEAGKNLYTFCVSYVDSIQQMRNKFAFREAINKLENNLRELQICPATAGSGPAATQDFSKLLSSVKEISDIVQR
Text: as §1

[8] = target: T2, Interleukin-1 receptor-associated kinase 4 (Homo sapiens, UniProt Q9NWZ3)
T2 sequence (Q9NWZ3 whole entry): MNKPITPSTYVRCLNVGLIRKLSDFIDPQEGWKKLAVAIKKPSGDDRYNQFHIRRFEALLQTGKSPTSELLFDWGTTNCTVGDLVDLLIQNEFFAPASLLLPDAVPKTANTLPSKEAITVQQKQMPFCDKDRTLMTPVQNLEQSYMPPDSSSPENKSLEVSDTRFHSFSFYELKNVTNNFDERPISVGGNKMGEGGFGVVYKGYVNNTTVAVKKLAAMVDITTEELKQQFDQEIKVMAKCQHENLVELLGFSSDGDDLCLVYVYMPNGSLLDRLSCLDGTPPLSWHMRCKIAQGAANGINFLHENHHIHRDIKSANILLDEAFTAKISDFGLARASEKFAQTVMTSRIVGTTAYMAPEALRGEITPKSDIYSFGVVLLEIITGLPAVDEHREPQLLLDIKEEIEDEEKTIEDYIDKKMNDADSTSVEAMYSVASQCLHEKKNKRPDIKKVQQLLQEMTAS
Text: as §1

[9] = target: Tyrosine-protein kinase Lck (Homo sapiens, UniProt P06239)
Chain of Tyrosine-protein kinase Lck (P06239 whole entry): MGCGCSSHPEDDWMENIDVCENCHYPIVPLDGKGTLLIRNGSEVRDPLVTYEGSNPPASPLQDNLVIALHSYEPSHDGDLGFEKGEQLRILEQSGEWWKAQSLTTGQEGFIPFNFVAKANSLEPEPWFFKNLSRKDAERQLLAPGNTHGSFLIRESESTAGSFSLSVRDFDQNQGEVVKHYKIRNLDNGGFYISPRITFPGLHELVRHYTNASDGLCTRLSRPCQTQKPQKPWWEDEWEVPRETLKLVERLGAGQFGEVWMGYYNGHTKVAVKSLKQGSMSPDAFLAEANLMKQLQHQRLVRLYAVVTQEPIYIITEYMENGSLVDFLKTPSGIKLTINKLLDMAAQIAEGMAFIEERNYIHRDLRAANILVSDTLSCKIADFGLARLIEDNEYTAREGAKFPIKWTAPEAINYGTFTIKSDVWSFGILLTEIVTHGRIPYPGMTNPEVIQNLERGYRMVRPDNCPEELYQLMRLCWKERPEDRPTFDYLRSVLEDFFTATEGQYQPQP
Text: as §1

Ephrin type-A receptor 3 = target: T3, Ephrin type-A receptor 3 (Homo sapiens, UniProt P29320)
T3 sequence (P29320 whole entry): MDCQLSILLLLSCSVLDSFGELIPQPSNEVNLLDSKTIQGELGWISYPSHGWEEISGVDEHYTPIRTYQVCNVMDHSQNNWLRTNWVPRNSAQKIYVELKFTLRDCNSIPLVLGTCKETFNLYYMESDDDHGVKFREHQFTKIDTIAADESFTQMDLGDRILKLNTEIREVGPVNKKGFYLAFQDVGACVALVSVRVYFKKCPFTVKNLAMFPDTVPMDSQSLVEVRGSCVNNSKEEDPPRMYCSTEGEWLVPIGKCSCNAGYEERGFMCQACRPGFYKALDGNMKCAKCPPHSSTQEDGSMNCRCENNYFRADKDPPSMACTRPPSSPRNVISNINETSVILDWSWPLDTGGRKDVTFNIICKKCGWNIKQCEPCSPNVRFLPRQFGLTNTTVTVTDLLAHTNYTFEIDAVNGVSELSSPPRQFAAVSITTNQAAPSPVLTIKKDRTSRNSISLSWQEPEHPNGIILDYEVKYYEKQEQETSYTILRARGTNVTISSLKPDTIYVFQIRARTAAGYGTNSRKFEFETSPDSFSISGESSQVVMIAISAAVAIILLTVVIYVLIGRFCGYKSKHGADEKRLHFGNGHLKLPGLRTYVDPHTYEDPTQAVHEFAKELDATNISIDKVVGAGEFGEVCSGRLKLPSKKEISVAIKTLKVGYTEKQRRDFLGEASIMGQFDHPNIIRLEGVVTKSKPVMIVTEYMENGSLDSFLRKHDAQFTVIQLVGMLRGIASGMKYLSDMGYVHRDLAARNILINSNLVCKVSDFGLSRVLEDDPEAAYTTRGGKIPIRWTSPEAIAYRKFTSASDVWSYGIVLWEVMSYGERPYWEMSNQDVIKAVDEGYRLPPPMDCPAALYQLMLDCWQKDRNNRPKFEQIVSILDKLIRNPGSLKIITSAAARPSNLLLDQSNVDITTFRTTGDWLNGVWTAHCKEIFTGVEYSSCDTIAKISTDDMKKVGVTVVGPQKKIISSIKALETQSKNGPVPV
Text: as §1

[10] = target: Tyrosine-protein kinase CSK (Homo sapiens, UniProt P41240)
Text: as §1

Chain of Serine/threonine-protein kinase PAK 5 (Q9P286 whole entry): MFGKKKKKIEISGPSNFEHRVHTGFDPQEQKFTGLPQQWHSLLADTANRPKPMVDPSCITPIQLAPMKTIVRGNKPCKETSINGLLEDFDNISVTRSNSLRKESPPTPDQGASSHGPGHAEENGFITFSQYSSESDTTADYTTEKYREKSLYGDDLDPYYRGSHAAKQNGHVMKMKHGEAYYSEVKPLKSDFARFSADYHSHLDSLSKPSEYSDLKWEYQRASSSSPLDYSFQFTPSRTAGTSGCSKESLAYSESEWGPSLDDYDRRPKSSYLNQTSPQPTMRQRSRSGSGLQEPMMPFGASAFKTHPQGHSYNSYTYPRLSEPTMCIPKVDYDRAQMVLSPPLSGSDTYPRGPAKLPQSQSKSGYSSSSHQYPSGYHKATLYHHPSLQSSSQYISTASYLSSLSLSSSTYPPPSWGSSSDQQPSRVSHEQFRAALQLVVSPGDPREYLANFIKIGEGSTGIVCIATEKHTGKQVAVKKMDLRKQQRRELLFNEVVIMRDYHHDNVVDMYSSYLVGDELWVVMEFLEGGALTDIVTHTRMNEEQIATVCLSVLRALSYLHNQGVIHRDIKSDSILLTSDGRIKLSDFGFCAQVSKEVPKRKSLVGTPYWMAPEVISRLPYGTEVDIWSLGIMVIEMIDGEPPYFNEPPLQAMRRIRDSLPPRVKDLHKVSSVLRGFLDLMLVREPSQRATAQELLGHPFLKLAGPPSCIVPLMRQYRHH
Chain of Proto-oncogene tyrosine-protein kinase Src (P12931 2-536 limits assumed): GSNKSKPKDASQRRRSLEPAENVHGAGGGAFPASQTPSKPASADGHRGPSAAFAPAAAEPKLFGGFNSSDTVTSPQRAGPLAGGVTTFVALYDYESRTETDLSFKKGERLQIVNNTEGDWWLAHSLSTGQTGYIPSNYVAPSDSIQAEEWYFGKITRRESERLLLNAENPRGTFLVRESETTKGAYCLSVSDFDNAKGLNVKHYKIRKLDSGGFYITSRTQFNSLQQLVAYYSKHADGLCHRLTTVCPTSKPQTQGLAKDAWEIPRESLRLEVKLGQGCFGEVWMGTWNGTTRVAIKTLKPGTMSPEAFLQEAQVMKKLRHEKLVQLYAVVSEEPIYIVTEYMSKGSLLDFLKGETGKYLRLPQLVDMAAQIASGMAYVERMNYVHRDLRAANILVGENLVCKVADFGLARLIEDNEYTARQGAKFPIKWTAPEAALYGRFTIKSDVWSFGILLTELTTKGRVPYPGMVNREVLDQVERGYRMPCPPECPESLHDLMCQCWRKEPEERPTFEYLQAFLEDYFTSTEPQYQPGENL

- IC50 [1]: > 10000 nM
- IC50 [2]: < 2 nM
- IC50 [3]: > 10000 nM
- IC50 [4]: > 10000 nM
- IC50 [5]: < 10 nM
- IC50 [6]: < 0.5 nM
- IC50 [7]: < 2 nM
- IC50 [8]: > 10000 nM
- IC50 [9]: < 2 nM
- IC50 (Ephrin type-A receptor 3): < 10 nM
- IC50 [10]: 8.4 nM
Compound: Cc1ccc(NC(=O)c2cccc(C(F)(F)F)c2)cc1-c1ccc2nc(Nc3ccc(OCCN)cc3)ncc2c1 [Kinase inhibitor, 5]
